Measurements as given in ChEMBL document CHEMBL5625248, “Identification of unique indolylcyanoethylenyl sulfonylanilines as novel structural scaffolds of potential antibacterial agents” (Eur J Med Chem, 2023).
In brackets after ≈: the same amount, converted by molar mass.

Columns and labels:
Format in all cases: functional
Staphylococcus aureus [1] = assay: Antibacterial activity against methicilin-resistant Staphylococcus aureus N315 assessed as inhibition of bacterial growth incubated for 18 hrs by two fold broth microdilution assay
Enterococcus faecalis = assay: Antibacterial activity against Enterococcus faecalis assessed as inhibition of bacterial growth incubated for 18 hrs by two fold broth microdilution assay
Staphylococcus aureus [2] = assay: Antibacterial activity against Staphylococcus aureus assessed as inhibition of bacterial growth incubated for 18 hrs by two fold broth microdilution assay
Staphylococcus aureus [3] = assay: Antibacterial activity against Staphylococcus aureus ATCC 25923 assessed as inhibition of bacterial growth incubated for 18 hrs by two fold broth microdilution assay
Staphylococcus aureus [4] = assay: Antibacterial activity against Staphylococcus aureus ATCC 29213 assessed as inhibition of bacterial growth incubated for 18 hrs by two fold broth microdilution assay
Klebsiella pneumoniae = assay: Antibacterial activity against Klebsiella pneumoniae assessed as inhibition of bacterial growth incubated for 18 hrs by two fold broth microdilution assay
Escherichia coli [5] = assay: Antibacterial activity against Escherichia coli assessed as inhibition of bacterial growth incubated for 18 hrs by two fold broth microdilution assay
Pseudomonas aeruginosa [6] = assay: Antibacterial activity against Pseudomonas aeruginosa assessed as inhibition of bacterial growth incubated for 18 hrs by two fold broth microdilution assay
Acinetobacter baumannii = assay: Antibacterial activity against Acinetobacter baumannii assessed as inhibition of bacterial growth incubated for 18 hrs by two fold broth microdilution assay
Pseudomonas aeruginosa [7] = assay: Antibacterial activity against Pseudomonas aeruginosa ATCC 27853 assessed as inhibition of bacterial growth incubated for 18 hrs by two fold broth microdilution assay
Escherichia coli [8] = assay: Antibacterial activity against Escherichia coli ATCC 25922 assessed as inhibition of bacterial growth incubated for 18 hrs by two fold broth microdilution assay

Row | SMILES | MIC (Staphylococcus aureus [1]) [µg/mL] | MIC (Enterococcus faecalis) [µg/mL] | MIC (Staphylococcus aureus [2]) [µg/mL] | MIC (Staphylococcus aureus [3]) [µg/mL] | MIC (Staphylococcus aureus [4]) [µg/mL] | MIC (Klebsiella pneumoniae) [µg/mL] | MIC (Escherichia coli [5]) [µg/mL] | MIC (Pseudomonas aeruginosa [6]) [µg/mL] | MIC (Acinetobacter baumannii) [µg/mL] | MIC (Pseudomonas aeruginosa [7]) [µg/mL] | MIC (Escherichia coli [8]) [µg/mL]
1 | CC(=O)Nc1ccc(S(=O)(=O)/C(C#N)=C/c2cn(CC=C(C)C)c3ccccc23)cc1 | 64 (≈ 148 µM) | 4 (≈ 9.23 µM) | 4 (≈ 9.23 µM) | 8 (≈ 18.5 µM) | 8 (≈ 18.5 µM) | 16 (≈ 36.9 µM) | 8 (≈ 18.5 µM) | 64 (≈ 148 µM) | 8 (≈ 18.5 µM) | 8 (≈ 18.5 µM) | 8 (≈ 18.5 µM)
2 | CC(=O)Nc1ccc(S(=O)(=O)/C(C#N)=C/c2c[nH]c3ccccc23)cc1 | 8 (≈ 21.9 µM) | 2 (≈ 5.47 µM) | 256 (≈ 701 µM) | 8 (≈ 21.9 µM) | 8 (≈ 21.9 µM) | 16 (≈ 43.8 µM) | 64 (≈ 175 µM) | 32 (≈ 87.6 µM) | 0.5 (≈ 1.37 µM) | 1 (≈ 2.74 µM) | 4 (≈ 10.9 µM)
3 | CC(=O)Nc1ccc(S(=O)(=O)/C(C#N)=C/c2cn(Cc3cccc(F)c3)c3ccccc23)cc1 | 256 (≈ 541 µM) | 32 (≈ 67.6 µM) | 64 (≈ 135 µM) | 16 (≈ 33.8 µM) | 16 (≈ 33.8 µM) | 256 (≈ 541 µM) | 128 (≈ 270 µM) | 64 (≈ 135 µM) | 16 (≈ 33.8 µM) | 16 (≈ 33.8 µM) | 64 (≈ 135 µM)
4 | N#C/C(=C\c1c[nH]c2ccc([N+](=O)[O-])cc12)S(=O)(=O)c1ccc(N)cc1 | 128 (≈ 347 µM) | 128 (≈ 347 µM) | 64 (≈ 174 µM) | 128 (≈ 347 µM) | 64 (≈ 174 µM) | 4 (≈ 10.9 µM) | 128 (≈ 347 µM) | 64 (≈ 174 µM) | 64 (≈ 174 µM) | 16 (≈ 43.4 µM) | 8 (≈ 21.7 µM)
5 | N#C/C(=C\c1cn(Cc2ccccc2F)c2ccccc12)S(=O)(=O)c1ccc(N)cc1 | 64 (≈ 148 µM) | 64 (≈ 148 µM) | 256 (≈ 593 µM) | 8 (≈ 18.5 µM) | 4 (≈ 9.27 µM) | 128 (≈ 297 µM) | 256 (≈ 593 µM) | 64 (≈ 148 µM) | 256 (≈ 593 µM) | 128 (≈ 297 µM) | 8 (≈ 18.5 µM)
6 | CC(=O)Nc1ccc(S(=O)(=O)/C(C#N)=C/c2cn(Cc3ccccc3F)c3ccccc23)cc1 | 256 (≈ 541 µM) | 8 (≈ 16.9 µM) | 128 (≈ 270 µM) | 4 (≈ 8.45 µM) | 4 (≈ 8.45 µM) | 256 (≈ 541 µM) | 128 (≈ 270 µM) | 64 (≈ 135 µM) | 16 (≈ 33.8 µM) | 16 (≈ 33.8 µM) | 64 (≈ 135 µM)
7 | N#C/C(=C\c1c[nH]c2cc(F)ccc12)S(=O)(=O)c1ccc(N)cc1 | 16 (≈ 46.9 µM) | 8 (≈ 23.4 µM) | 4 (≈ 11.7 µM) | 4 (≈ 11.7 µM) | 128 (≈ 375 µM) | 64 (≈ 187 µM) | 256 (≈ 750 µM) | 4 (≈ 11.7 µM) | 8 (≈ 23.4 µM) | 8 (≈ 23.4 µM) | 8 (≈ 23.4 µM)
8 | CC(=O)Nc1ccc(S(=O)(=O)/C(C#N)=C/c2cn(Cc3ccccc3Cl)c3ccccc23)cc1 | 16 (≈ 32.7 µM) | 4 (≈ 8.16 µM) | 2 (≈ 4.08 µM) | 4 (≈ 8.16 µM) | 8 (≈ 16.3 µM) | 2 (≈ 4.08 µM) | 2 (≈ 4.08 µM) | 2 (≈ 4.08 µM) | 8 (≈ 16.3 µM) | 4 (≈ 8.16 µM) | 1 (≈ 2.04 µM)
9 | CCn1cc(C(=O)O)c(=O)c2cc(F)c(N3CCNCC3)cc21 [NORFLOXACIN] | 8 (≈ 25.1 µM) | 4 (≈ 12.5 µM) | 2 (≈ 6.26 µM) | 2 (≈ 6.26 µM) | 1 (≈ 3.13 µM) | 2 (≈ 6.26 µM) | 4 (≈ 12.5 µM) | 2 (≈ 6.26 µM) | 4 (≈ 12.5 µM) | 4 (≈ 12.5 µM) | 4 (≈ 12.5 µM)
10 | CC(=O)Nc1ccc(S(=O)(=O)/C(C#N)=C/c2cn(CCN(C)C)c3ccccc23)cc1 | 128 (≈ 293 µM) | 256 (≈ 586 µM) | 128 (≈ 293 µM) | 16 (≈ 36.7 µM) | 2 (≈ 4.58 µM) | 8 (≈ 18.3 µM) | 128 (≈ 293 µM) | 64 (≈ 147 µM) | 32 (≈ 73.3 µM) | 16 (≈ 36.7 µM) | 64 (≈ 147 µM)
